Paper PMC7366380, “Discovery of a Potent and Selective Covalent Inhibitor and Activity-Based Probe for the Deubiquitylating Enzyme UCHL1, with Antifibrotic Activity” (Journal of the American Chemical Society, 2020)
“And” between values parts separate entries of the source, which are not always exact repeats. Identical values can stand only once. One block for each compound: values may come before it.

Columns and labels:
[1] = target: T1, USP22 (Homo sapiens, UniProt Q9UPT9); experiment: Biochemical DUB selectivity profiling assay: USP22; conditions: Ub-Rho110 400 nM, buffer B; read-out: Biochemical IC50 range, USP22
T1 sequence (Q9UPT9 1-525): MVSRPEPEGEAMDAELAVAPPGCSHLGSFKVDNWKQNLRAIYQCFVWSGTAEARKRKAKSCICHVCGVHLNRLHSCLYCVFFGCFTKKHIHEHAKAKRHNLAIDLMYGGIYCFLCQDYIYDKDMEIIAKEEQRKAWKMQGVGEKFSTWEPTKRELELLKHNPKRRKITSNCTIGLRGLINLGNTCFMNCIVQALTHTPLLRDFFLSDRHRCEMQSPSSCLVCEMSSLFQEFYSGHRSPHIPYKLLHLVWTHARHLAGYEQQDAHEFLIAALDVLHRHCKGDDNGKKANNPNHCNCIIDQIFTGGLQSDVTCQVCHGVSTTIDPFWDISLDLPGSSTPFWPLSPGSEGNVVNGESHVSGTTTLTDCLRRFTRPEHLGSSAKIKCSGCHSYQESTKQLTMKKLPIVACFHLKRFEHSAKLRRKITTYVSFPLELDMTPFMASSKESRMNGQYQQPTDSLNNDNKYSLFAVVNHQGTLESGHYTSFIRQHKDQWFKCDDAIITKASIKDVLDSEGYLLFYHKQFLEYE
T1 sequence (Q14CW9 1-347 partner): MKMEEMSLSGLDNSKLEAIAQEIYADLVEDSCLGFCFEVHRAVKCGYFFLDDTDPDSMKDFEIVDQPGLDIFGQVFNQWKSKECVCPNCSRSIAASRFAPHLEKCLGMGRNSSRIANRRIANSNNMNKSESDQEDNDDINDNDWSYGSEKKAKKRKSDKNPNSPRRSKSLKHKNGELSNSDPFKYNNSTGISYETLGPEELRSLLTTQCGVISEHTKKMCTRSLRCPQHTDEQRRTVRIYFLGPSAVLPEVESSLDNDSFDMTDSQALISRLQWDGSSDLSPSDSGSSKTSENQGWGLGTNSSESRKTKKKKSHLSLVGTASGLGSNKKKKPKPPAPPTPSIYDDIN
T1 sequence (Q9NPA8 1-101 partner): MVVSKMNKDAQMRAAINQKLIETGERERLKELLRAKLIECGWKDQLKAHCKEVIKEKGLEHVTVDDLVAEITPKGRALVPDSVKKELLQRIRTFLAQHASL
Description: DUB Assay Substrate Substrate
Buffer Concentration (nM) […]
Sepharose® 4B resin (GE Healthcare).
10 kDa molecular weight cut-off (MWCO)).
Fractions containing protein
Protein concentration was […]
reaction volume of 21 μL. […]
compound (final concentration 5 nM).
IC50 values were determined
Biochemical DUB selectivity profiling assays […]
in 40 µL total reaction volume.

[2] = target: T2, USP8 (Homo sapiens, UniProt P40818); experiment: biochemical
T2 sequence (P40818 1-1118): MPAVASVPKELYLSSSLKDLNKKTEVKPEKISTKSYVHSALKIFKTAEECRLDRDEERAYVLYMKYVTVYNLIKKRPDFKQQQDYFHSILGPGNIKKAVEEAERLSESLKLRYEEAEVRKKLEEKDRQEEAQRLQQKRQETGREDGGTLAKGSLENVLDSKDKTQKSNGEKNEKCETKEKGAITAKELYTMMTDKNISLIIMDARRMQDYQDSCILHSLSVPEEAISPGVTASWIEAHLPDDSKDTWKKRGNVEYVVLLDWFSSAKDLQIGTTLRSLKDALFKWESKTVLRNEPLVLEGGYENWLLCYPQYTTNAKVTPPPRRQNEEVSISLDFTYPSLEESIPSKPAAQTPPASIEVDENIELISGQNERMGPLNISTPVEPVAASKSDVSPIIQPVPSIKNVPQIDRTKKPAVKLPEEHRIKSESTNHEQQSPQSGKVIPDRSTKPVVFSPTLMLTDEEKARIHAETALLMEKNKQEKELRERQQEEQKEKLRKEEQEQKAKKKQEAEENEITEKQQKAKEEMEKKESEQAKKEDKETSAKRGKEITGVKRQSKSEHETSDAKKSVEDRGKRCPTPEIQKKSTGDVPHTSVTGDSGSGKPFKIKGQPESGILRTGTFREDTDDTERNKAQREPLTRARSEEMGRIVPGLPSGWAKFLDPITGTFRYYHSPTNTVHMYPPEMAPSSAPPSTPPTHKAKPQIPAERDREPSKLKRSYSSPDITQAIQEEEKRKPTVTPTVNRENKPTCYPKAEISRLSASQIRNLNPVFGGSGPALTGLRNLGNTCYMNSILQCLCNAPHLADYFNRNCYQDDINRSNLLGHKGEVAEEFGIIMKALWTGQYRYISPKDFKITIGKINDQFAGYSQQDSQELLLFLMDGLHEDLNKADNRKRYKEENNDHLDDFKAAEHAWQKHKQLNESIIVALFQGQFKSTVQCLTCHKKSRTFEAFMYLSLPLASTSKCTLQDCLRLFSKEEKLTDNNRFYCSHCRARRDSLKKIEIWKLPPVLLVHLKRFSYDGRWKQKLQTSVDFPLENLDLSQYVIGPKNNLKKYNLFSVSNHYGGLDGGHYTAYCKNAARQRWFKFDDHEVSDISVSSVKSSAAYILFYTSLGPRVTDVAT

[3] = target: T3, UCHL1 (Homo sapiens, UniProt P09936); experiment: In-cell proteome-wide competitive ABPP (quantitative chemical proteomics), HEK293: UCHL1; conditions: for Log2 reporter intensity values: UCHL1: DMSO substract (FC); for Log2 reporter intensity values: UCHL1 / Log2 reporter intensity values: replicates A-C; for UCHL1 response in proteome-wide competitive ABPP: HEK293, compound 60 min, then 2 (20 nM) 10 min; for Log2 reporter intensity values: UCHL1, DMSO subtracted
T3 sequence (P09936 1-223): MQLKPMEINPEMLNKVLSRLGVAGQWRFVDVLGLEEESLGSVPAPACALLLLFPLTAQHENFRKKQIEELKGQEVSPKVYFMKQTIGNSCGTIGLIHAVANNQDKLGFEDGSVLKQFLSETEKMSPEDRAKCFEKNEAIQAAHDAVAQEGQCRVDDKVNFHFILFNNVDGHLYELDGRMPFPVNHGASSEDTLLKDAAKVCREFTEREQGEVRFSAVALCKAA

SMILES: CC(=O)O/N=C1\C(=O)N(Cc2cc(Cl)ccc2Cl)c2ccc(Cl)cc21 [LDN-57444, reference compound]
IC50 [1]: > 10 µM
IC50 [2]: > 10 µM

IC50 [1]: > 10 µM
Log2 reporter intensity values: UCHL1 ([3]; 3 at 1 μM, competition with ABP 2): 5.152 and 5.416 and 5.469
Log2 reporter intensity values: UCHL1 ([3]; 3 at 4 μM, competition with ABP 2): 5.424 and 5.76 and 5.633
UCHL1 response in proteome-wide competitive ABPP [3]: does not respond
Log2 reporter intensity values ([3]; 3_1 μM): 4.152 and 4.416 and 4.468
Log2 reporter intensity values ([3]; 3_4 μM): 4.423 and 4.76 and 4.632
Log2 reporter intensity values ([3]; 3 at 1 μM): 2.365 and 2.437 and 2.451
Log2 reporter intensity values ([3]; 3 at 4 μM): 2.439 and 2.526 and 2.494
IC50 [2]: > 10 µM
SMILES: N#CN1CCC[C@@H]1C(=O)N1CCc2c(-c3c[nH]c4ncccc34)cccc21 [Compound 3]

IC50 [1]: > 10 µM
Log2 reporter intensity values: UCHL1 ([3]; 1 at 1 μM, competition with ABP 2): 1.266 and 1.307 and 1.157
Log2 reporter intensity values: UCHL1 ([3]; 1 at 4 μM, competition with ABP 2): 0.9345 and 0.8874 and 0.9379
UCHL1 response in proteome-wide competitive ABPP [3]: responds strongly
Log2 reporter intensity values ([3]; 1_1 μM): 0.2661 and 0.3067 and 0.157
Log2 reporter intensity values ([3]; 1_4 μM): -0.06576 and -0.1128 and -0.06231
Log2 reporter intensity values ([3]; 1 at 1 μM): 0.3407 and 0.3862 and 0.2107
Log2 reporter intensity values ([3]; 1 at 4 μM): -0.09779 and -0.1723 and -0.09247
IC50 [2]: > 10 µM
SMILES: N#CN1CCC[C@H]1C(=O)N1CCc2c(-c3c[nH]c4ncccc34)cccc21 [Compound 1]

IC50 [1]: > 10 µM
Log2 reporter intensity values: UCHL1 ([3]; 20 nM ABP 2 alone): 6.229 and 5.741 and 6.184
SMILES: C#Cc1cnc2[nH]cc(-c3cccc4c3CCN4C(=O)[C@@H]3CCCN3C#N)c2c1 [Compound 2]
Log2 reporter intensity values ([3]; 20 nM ABP 2): 2.639 and 2.521 and 2.629 and 5.2291 and 4.741 and 5.184
